Laboratory results published in patent publication US9795625B2, “Uridine and uridine analogues for treatment of specific lung diseases, namely COPD and pulmonary fibrosis” (Universitaetsklinikum Freiburg, priority 2011, dated 2017).

Columns and labels:
smoke exposed mice = assay: Acute cigarette smoke exposure, i.t. uridine, BAL fluid analysis; assay type: in vivo, Male C57BL/6 mice
Protocol: Male C57BL/6 mice were exposed to whole smoke of five cigarettes (commercial Virginia filter cigarettes: 12 mg of tar and 0.9 mg of nicotine) or room air for 20 min on three consecutive days in especially designed macrolon cages (Tecniplast, Buguggiate, Italy), as previously described (Cavarra E et al., Human SLPI inactivation after cigarette smoke exposure in a new in vivo model of pulmonary oxidative stress, Am J Physiol Lung Cell Mol Physiol. 2001 August; 281(2):L412-7, Cicko S et al., Purinergic receptor inhibition prevents the development of smoke-induced lung injury and emphysema, J Immunol. 2010 Jul. 1; 185(1):688-97). The smoke was produced by the burning of a cigarette and was introduced into the chamber with the airflow generated by a mechanical ventilator (7025 Rodent Ventilator, Ugo Basile, Biological Research Instruments, Comerio, Italy), at a rate of 250 ml/min. A second mechanical ventilator was used to provide room air for dilution (1:8) of the smoke-stream.
In some experiments, intratracheal treatment (i.t.) was performed prior to each smoke exposure: animals were anaesthetized by intraperitoneal injection of Ketamin/Xylazin and received an i.t. injection of uridine in a total volume of 80 μl (1 mM or 10 mM) or PBS which was used as vehicle. One hour after the last smoke challenge, mice were sacrificed and bronchoalveolar lavage (BAL) was performed.
BAL fluid was collected by cannulating the trachea under deep pentobarbital anesthesia and washing the lung three times with 1 ml PBS containing 0.1 mM EDTA, as previously described (Idzko M et al., Extracellular ATP triggers and maintains asthmatic airway inflammation by activating dendritic cells, Nat Med. 2007 Aug.; 13(8):913-9, Cicko S et al., Purinergic receptor inhibition prevents the development of smoke-induced lung injury and emphysema, J Immunol. 2010 Jul. 1; 185(1):688-97). Total cell numbers were counted and differential cell counts were performed on cytospin preparations after staining with Diff-Quick (Medion Diagnostics, Dudingen, Switzerland). Differential cell counts were made on >200 cells using standard morphological criteria and FACS-analysis.
After counting and washing, BAL cells were stained for 30 min with anti-MHC class II (macrophages/DC), anti-7/4 (Caltag) FITC (neutrophiles; Abd-Serotec, Düsseldorf, Germany), anti-CD3 and anti-CD19 cy-chrome (lymphocytes), and anti-CD 11c APC macrophages/DCs (eBioscience, San Diego, Calif.) in PBS containing 0.5% BSA and 0.01% sodium azide. Differential cell counts were analyzed by flow cytometry, as described previously (Idzko M et al., Extracellular ATP triggers and maintains asthmatic airway inflammation by activating dendritic cells, Nat Med. 2007 Aug.; 13(8):913-9 and Cicko S et al., Purinergic receptor inhibition prevents the development of smoke-induced lung injury and emphysema, J Immunol. 2010 Jul. 1; 185(1):688-97).
To measure ATP concentrations in BALF in mice, fresh BALF supernatants were used, according to manufacturer's instructions (ATPlite Assay, PerkinElmer, Wellesley Mass.), but without the cell lysis step to avoid any contaminating intracellular ATP, as described previously (Idzko M et al., Extracellular ATP triggers and maintains asthmatic airway inflammation by activating dendritic cells, Nat Med. 2007 Aug.; 13(8):913-9 Cicko S et al., Purinergic receptor inhibition prevents the development of smoke-induced lung injury and emphysema, J Immunol. 2010 Jul. 1; 185(1):688-97)).
(§1) Cytokine concentrations in BALF were measured using commercially available ELISA kits (R&D Systems, Minneapolis, Minn.) according to the manufacturer's recommendations.
(§2) Statistical significance of differences between samples was calculated using ANOVA, followed by Bonferroni comparison test. Difference were considered significant if p<0.05.

[1] = test system: murine model of chronic smoke exposure; assay: Chronic exposure to cigarette smoke (pulmonary emphysema), lung morphometry; assay type: in vivo, male C57BL/6 mice; conditions: uridine 0.6 mg/kg oral gavage 45 min prior to smoke exposure vs non-uridine treated mice (FIG. 2)
From the text: The methodology for chronic smoke exposure has been previously described (Cavarra E et al., Human SLPI inactivation after cigarette smoke exposure in a new in vivo model of pulmonary oxidative stress, Am J Physiol Lung Cell Mol Physiol. 2001 August; 281(2):L412-7 Cicko S et al., Purinergic receptor inhibition prevents the development of smoke-induced lung injury and emphysema, J Immunol. 2010 Jul. 1; 185(1):688-97)). Briefly, male C57BL/6 mice were exposed to either the smoke of 3 cigarettes per day (commercial Virginia filter cigarettes: 12 mg of tar and 0.9 mg of nicotine), 5 days per week or to room air (controls) for 4 or 7 months, respectively.
When indicated, animals received an oral treatment by gavage with Uridine (0.6 mg/kg) 45 min prior to smoke exposure.
At the end of the respective time period, animals were sacrificed; BAL was performed followed by lung resection. […] Lung volume was measured by water displacement. […]
This Lm value was used to calculate the ISA (which represent the gas exchange surface), necessary for evaluating the degree of emphysema, from the equation 4V/Lm, where V is the postfixation lung volume. For the determination of the Lm for each pair of lungs, 40 histological fields were evaluated both vertically and horizontally.
Statistical significance of differences between samples was calculated using ANOVA, followed by Bonferroni comparison test. […]

[2] = test system: BLM-induced pulmonary fibrosis; assay: Mouse model of bleomycin (BLM) induced pulmonary fibrosis; assay type: in vivo, male C57/B16 mice
Protocol: The induction of BLM induced pulmonary fibrosis was performed as previously described (Gasse P, Mary C, Guenon I, Noulin N, Charron S, Schnyder-Candrian S, Schnyder B, Akira S, Quesniaux V F, Lagente V, et al. II-1r1/myd88 signaling and the inflammasome are essential in pulmonary inflammation and fibrosis in mice. J Clin Invest 2007; 117(12):3786-3799). Then, male C57/B16 animals were treated with the uridine p.o. (200 μl 10 mM) or vehicle 14 days after BLM-instillation for 3 days a week. At day 30 animals were examined for the typical features of BLM-induced lung injury. Therefore BALF was collected and differential cell count was analyzed as described above.
as §1
The amount of lung collagen was measured in the lung tissue using the Sircol-assay according to the manufacturer's recommendations (Biocolor, Life-Science, UK).
as §2

[3] = test system: asthmatic airway inflammation; conditions: OVA-alum model and HDM model in mice, local administration; cited from earlier work
[4] = test system: mitochondrial toxicity caused by highly active antiretroviral therapy (HAART); conditions: cited from earlier work
[5] = test system: sephadex-induced acute lung inflammation; conditions: sephadex-induced acute lung inflammation model; cited from earlier work
[6] = BALF, uridine i.t. 1 mM or 10 mM
[7] = BALF, uridine p.o. 200 μl 10 mM, day 30
[8] = uridine p.o. 200 μl 10 mM, day 30

O=c1ccn([C@@H]2O[C@H](CO)[C@@H](O)[C@H]2O)c(=O)[nH]1 [uridine]
level of IFN-γ (smoke exposed mice; [6]): dose dependently reduced
level of IL-1β (smoke exposed mice; [6]): dose dependently reduced
level of IL-6 (smoke exposed mice; [6]): dose dependently reduced
level of KC (smoke exposed mice; [6]): dose dependently reduced
level of MIP-2 (smoke exposed mice; [6]): dose dependently reduced
number of macrophages (smoke exposed mice; [6]): dose dependently reduced
number of neutrophils (smoke exposed mice; [6]): dose dependently reduced
amount of extracellular ATP in BALF (smoke exposed mice; uridine i.t. 80 μl 1 mM or 10 mM vs non uridine treated mice (FIG. 1b)): significantly be reduced in a dose dependent manner
internal surface area of the lung [1]: higher
mean linear intercept [1]: significantly lower
IL-1 beta [2, 7]: down-regulation
IL-6 [2, 7]: down-regulation
KC [2, 7]: down-regulation
TNFalpha [2, 7]: down-regulation
BLM-induced pulmonary fibrosis ([2]; uridine p.o 3×/week from day 14, day 30 (FIG. 3)): decreases
amount of collagen in the lung ([2]; uridine p.o. 200 μl 10 mM 3 days a week from day 14, day 30): significantly reduce
TIMP-1 ([2]; uridine p.o. 200 μl 10 mM, after bleomycin instillation (FIG. 3)): reduced to normal levels
lymphocytes in BALF [2, 8]: down-regulation
macrophages in BALF [2, 8]: down-regulation
neutrophils in BALF [2, 8]: down-regulation
asthmatic airway inflammation [3]: suppress
efficacy in reduction of mitochondrial toxicity ([4]; human, HAART): efficacious
safety ([4]; in vivo): safe

O=c1[nH]c(=S)ccn1[C@@H]1O[C@H](CO)[C@@H](O)[C@H]1O [4-thiouridine]
anti-inflammatory effects [5]: anti-inflammatory effects similar to those of uridine
